The record followed here is paper PMC8567874, “Metronomic delivery of orally available pemetrexed-incorporated colloidal dispersions for boosting tumor-specific immunity” (Drug Delivery, 2021).

This assay has as its system CT26.CL25 tumor-bearing mice. The assay is described as follows: In vivo immunostimulatory effects in CT26.CL25 tumor-bearing mice (flow cytometry, ELISPOT, slide staining). The following applies: 3 weeks, PMX 150 mg/kg IV every 3 weeks, PMX/DL-CD oral daily 20 mg/kg PMX. As for the experimental part:
To investigate in vivo immunostimulatory effects of oral metronomic PMX, BALB/c mice were inoculated with 1 × 10^6 of CT26.CL25 cells per mouse. The mice were randomly divided into three groups (10 mice per group) once the tumor volume had reached 50–70 mm^3: control (untreated), PMX-IV (150 mg/kg PMX administered IV every 3 weeks), and PMX/DL-CD (oral PMX/DL(1:1)-CD administered daily, equivalent to 20 mg/kg PMX). The mice were sacrificed 3 weeks after treatment and the tumors were isolated. The tumor tissues were converted into single cells by passing them through a 40-µm filter after digestion with collagenase A (0.2% w/v), DNAse (30 U/mL), and dispase (10 U/mL) in MACS (gentleMACS Octo Dissociator with Heaters; Miltenyi Biotec, Bergisch Gladbach, Germany) at 37 °C for 45 min. Some cells were collected for tumor-infiltrating lymphocyte analyses and centrifuged using histopaque-1077 for 20 min at 450 g to isolate the lymphocytes. The isolated cells were then stained with fluorescence-conjugated antibodies and incubated. The cells were washed and suspended in FACS buffer and then collected into FACS tubes. The cells were then analyzed using flow cytometry (FACS Aria II) and the data were analyzed using FlowJo software (FlowJo LLC, Ashland, OR, USA). Cell populations were acquired by gating, as follows: tumor-infiltrating lymphocytes (DAPI^−/CD45^+), helper T cells (DAPI^−/CD45^+/CD3^+/CD4^+), PD-L1-expressing tumor cells (DAPI^−/CD45^−/PD-L1^+), proliferating cytotoxic T cells (DAPI^−/CD45^+/CD3^+/CD8^+/ki67^+), and IFN-γ-secreting T cells (DAPI^−/CD45^+/CD3^+/CD8^+/IFN-γ^+).
Lymphocytes were isolated from the tumors using the procedure described previously; 2 × 10^5 tumor lymphocytes per well, along with β-gal (5 µg/mL), were incubated on pre-coated 96-well plates in CTL test medium for 24 h at 37 °C with 9% CO2. […] After the procedure, the plates were scanned and the spots were counted in the ELISpot counter (Immunospot® S6 ULTIMATE analyzer; Cellular Technology Ltd.). […]
Background: A flow cytometer gives signals particle by particle.

In the case of `Nc1nc2[nH]cc(CCc3ccc(C(=O)N[C@@H](CCC(=O)O)C(=O)O)cc3)c2c(=O)[nH]1` [PMX, Pemetrexed], the “CD4+ T-cell population in tumor compared to control” value is given as “substantially increased”; the “CD45+ cell infiltration in tumor compared to control” value is “slightly increased”; the “PD-L1 expression in tumor cells, times greater compared to the control group” value was “two”.
